Test results: the NIST ThermoML archive (doi:10.1021/acs.jced.6b00350)
Where “and” joins values, the source holds several entries; their conditions need not be identical. Equal entries are not always repeated.

Details: Liquid, Hot wire method

FC(F)CC(F)(F)F [1,1,1,3,3-pentafluoropropane]
Details | thermal conductivity
222.11 K, 10047 kPa | 0.1156 W/m/K
222.11 K, 15756 kPa | 0.117 W/m/K
222.12 K, 15761 kPa | 0.1169 W/m/K
222.12 K, 21261 kPa | 0.1184 W/m/K
222.12 K, 21267 kPa | 0.1186 W/m/K
222.13 K, 27470 kPa | 0.1201 W/m/K
222.13 K, 27478 kPa | 0.1202 W/m/K
222.13 K, 33686 kPa | 0.1212 W/m/K
222.16 K, 33712 kPa | 0.1215 W/m/K
222.37 K, 39767 kPa | 0.1235 W/m/K
222.37 K, 47190 kPa | 0.1251 W/m/K
222.38 K, 39761 kPa | 0.1235 W/m/K
222.38 K, 47197 kPa | 0.125 W/m/K
222.38 K, 54316 kPa | 0.1267 W/m/K
222.38 K, 54318 kPa | 0.1267 W/m/K
222.38 K, 61389 kPa | 0.1284 W/m/K
222.38 K, 67942 kPa | 0.1297 W/m/K
222.39 K, 61385 kPa | 0.1283 W/m/K
222.39 K, 67938 kPa | 0.1298 W/m/K
222.5 K, 255 kPa | 0.1121 W/m/K
222.5 K, 4863 kPa | 0.1134 W/m/K
222.5 K, 4873 kPa | 0.1134 W/m/K
222.51 K, 9999 kPa | 0.1152 W/m/K
222.51 K, 10021 kPa | 0.1152 W/m/K
222.51 K, 15761 kPa | 0.1166 W/m/K
222.51 K, 15763 kPa | 0.1166 W/m/K
222.51 K, 21262 kPa | 0.1182 W/m/K
222.51 K, 21266 kPa | 0.1185 W/m/K
222.51 K, 27487 kPa | 0.12 W/m/K
222.52 K, 245 kPa | 0.112 W/m/K
222.52 K, 27479 kPa | 0.1198 W/m/K
222.52 K, 33833 kPa | 0.1215 W/m/K
222.53 K, 33800 kPa | 0.1213 W/m/K
222.77 K, 67930 kPa | 0.1298 W/m/K
222.78 K, 39758 kPa | 0.1234 W/m/K
222.78 K, 39765 kPa | 0.1236 W/m/K
222.78 K, 47189 kPa | 0.1249 W/m/K
222.78 K, 47193 kPa | 0.125 W/m/K
222.78 K, 54318 kPa | 0.1265 W/m/K
222.78 K, 54319 kPa | 0.1266 W/m/K
222.78 K, 61395 kPa | 0.1281 W/m/K
222.78 K, 61401 kPa | 0.1282 W/m/K
222.78 K, 67928 kPa | 0.1296 W/m/K
222.94 K, 4870 kPa | 0.113 W/m/K
222.94 K, 10017 kPa | 0.1147 W/m/K
222.94 K, 10023 kPa | 0.1147 W/m/K
222.94 K, 15762 kPa | 0.1162 W/m/K
222.94 K, 15767 kPa | 0.1163 W/m/K
222.94 K, 21269 kPa | 0.1181 W/m/K
222.94 K, 21277 kPa | 0.118 W/m/K
222.94 K, 27478 kPa | 0.1199 W/m/K
222.94 K, 27487 kPa | 0.1197 W/m/K
222.94 K, 33837 kPa | 0.1213 W/m/K
222.94 K, 33847 kPa | 0.1213 W/m/K
222.95 K, 242 kPa | 0.1115 W/m/K
222.95 K, 262 kPa | 0.1116 W/m/K
222.95 K, 4862 kPa | 0.113 W/m/K
223.19 K, 67923 kPa | 0.1295 W/m/K
223.2 K, 61398 kPa | 0.128 W/m/K
223.2 K, 67921 kPa | 0.1295 W/m/K
223.21 K, 54306 kPa | 0.1263 W/m/K
223.21 K, 61402 kPa | 0.128 W/m/K
223.22 K, 39767 kPa | 0.1231 W/m/K
223.22 K, 47186 kPa | 0.1248 W/m/K
223.22 K, 47187 kPa | 0.1248 W/m/K
223.22 K, 54313 kPa | 0.1265 W/m/K
223.23 K, 39773 kPa | 0.1231 W/m/K
223.38 K, 33868 kPa | 0.1211 W/m/K
223.39 K, 33861 kPa | 0.1211 W/m/K
223.4 K, 21286 kPa | 0.1177 W/m/K
223.4 K, 27486 kPa | 0.1196 W/m/K
223.4 K, 27487 kPa | 0.1195 W/m/K
223.41 K, 15762 kPa | 0.1159 W/m/K
223.41 K, 15769 kPa | 0.1159 W/m/K
223.41 K, 21280 kPa | 0.1178 W/m/K
223.42 K, 4862 kPa | 0.1127 W/m/K
223.42 K, 4869 kPa | 0.1127 W/m/K
223.42 K, 10011 kPa | 0.1143 W/m/K
223.42 K, 10015 kPa | 0.1145 W/m/K
223.43 K, 243 kPa | 0.1111 W/m/K
223.43 K, 251 kPa | 0.1111 W/m/K
223.65 K, 67907 kPa | 0.1291 W/m/K
223.65 K, 67916 kPa | 0.1294 W/m/K
223.66 K, 61399 kPa | 0.1279 W/m/K
223.67 K, 61396 kPa | 0.1278 W/m/K
223.68 K, 54302 kPa | 0.1262 W/m/K
223.68 K, 54305 kPa | 0.1261 W/m/K
223.69 K, 47183 kPa | 0.1247 W/m/K
223.69 K, 47193 kPa | 0.1247 W/m/K
223.7 K, 39777 kPa | 0.123 W/m/K
223.71 K, 39772 kPa | 0.1229 W/m/K
223.87 K, 33885 kPa | 0.1209 W/m/K
223.88 K, 33873 kPa | 0.1209 W/m/K
241.3 K, 9886 kPa | 0.1092 W/m/K
241.3 K, 15301 kPa | 0.1111 W/m/K
241.31 K, 9877 kPa | 0.1094 W/m/K
241.32 K, 21013 kPa | 0.1123 W/m/K
241.32 K, 21021 kPa | 0.1121 W/m/K
241.33 K, 33388 kPa | 0.115 W/m/K
241.34 K, 33390 kPa | 0.1153 W/m/K
241.35 K, 26974 kPa | 0.1134 W/m/K
241.35 K, 26975 kPa | 0.1134 W/m/K
241.35 K, 46711 kPa | 0.1187 W/m/K
241.35 K, 46714 kPa | 0.1192 W/m/K
241.36 K, 39784 kPa | 0.1173 W/m/K
241.37 K, 297 kPa | 0.1065 W/m/K and 0.1069 W/m/K
241.37 K, 4974 kPa | 0.1077 W/m/K
241.37 K, 39780 kPa | 0.1174 W/m/K
241.38 K, 4982 kPa | 0.1074 W/m/K
241.38 K, 53704 kPa | 0.1209 W/m/K
241.38 K, 53707 kPa | 0.1206 W/m/K
241.41 K, 61279 kPa | 0.1222 W/m/K
241.43 K, 68711 kPa | 0.1241 W/m/K
241.43 K, 68724 kPa | 0.1238 W/m/K
241.68 K, 15290 kPa | 0.1103 W/m/K
241.69 K, 9889 kPa | 0.1088 W/m/K
241.69 K, 9892 kPa | 0.1093 W/m/K
241.69 K, 15293 kPa | 0.1107 W/m/K
241.69 K, 21027 kPa | 0.1119 W/m/K
241.69 K, 21032 kPa | 0.1126 W/m/K
241.7 K, 33378 kPa | 0.1158 W/m/K
241.7 K, 33381 kPa | 0.1154 W/m/K
241.7 K, 46707 kPa | 0.1184 W/m/K
241.71 K, 26968 kPa | 0.1137 W/m/K
241.71 K, 26981 kPa | 0.1139 W/m/K
241.71 K, 46714 kPa | 0.1189 W/m/K
241.72 K, 39777 kPa | 0.117 W/m/K
241.73 K, 39791 kPa | 0.1169 W/m/K
241.73 K, 53687 kPa | 0.1208 W/m/K
241.73 K, 53704 kPa | 0.1206 W/m/K
241.75 K, 61249 kPa | 0.1223 W/m/K
241.75 K, 61272 kPa | 0.1223 W/m/K
241.76 K, 296 kPa | 0.1058 W/m/K
241.76 K, 303 kPa | 0.1061 W/m/K
241.76 K, 4987 kPa | 0.108 W/m/K
241.77 K, 4997 kPa | 0.1079 W/m/K
241.77 K, 68669 kPa | 0.1236 W/m/K
241.78 K, 68692 kPa | 0.1241 W/m/K
